Patent publication US11185527B2, “Methods and compositions relating to steroid hormone receptor-dependent cancers” (Wayne State University, priority 2017, dated 2021)

Experiments:
[1] = system: AR recruitment to chromatin in LNCaP cells; assay: Chromatin immunoprecipitation (ChIP) with AR antibody in LNCaP cells; format: cell-based; conditions: R1881 10 nM + KCI807 20 uM, 2h
Experimental: FIGS. 2E and 2F are graphs showing results of tests in which LNCaP cells were treated with R1881 (10 nM), R1881 (10 nM)+KCI807 (20 uM), or vehicle for 2h. The cells were fixed and subjected to the chromatin immunoprecipitation (ChIP) assay using antibody to AR. ChIP signals from established sites of AR recruitment by ELK1 (FIG. 2E) or from canonical ARE enhancer sites associated with the KLK3 and TMPRSS2 genes (FIG. 2F) are plotted as percent of input DNA.
The ability of KCI807 to selectively block recruitment of AR by ELK1 to chromatin in situ was tested.

binding of ER to ELK1 = assay: SPR competition: inhibition of binding of ER (analyte) to immobilized ELK1; conditions: ER 200 nM, compound 0-32 uM
Experimental: A fixed concentration of ER (200 nM) was combined with 5,3′-Dihydroxyflavone diluted in a series (0, 1, 2,4, 8, 16, and 32 uM).
A fixed concentration of ER (200 nM) was combined with 5,3′-Dihydroxyflavone diluted in a series (0, 1, 2, 4, 8, 16, and 32 uM). […] This explains the ability of the compound to inhibit the estrogen-dependent growth of breast cancer cells, as ELK1 is required for estrogen-dependent growth of breast cancer cells.

ELK1 = biological target: T1, ELK1 (Homo sapiens, UniProt P19419); assay: Surface plasmon resonance, compound binding to immobilized ELK1; conditions: SPR
T1 construct: His; made in house; host or cells: baculovirus infected Sf9 cells
T1 sequence (P19419 whole entry): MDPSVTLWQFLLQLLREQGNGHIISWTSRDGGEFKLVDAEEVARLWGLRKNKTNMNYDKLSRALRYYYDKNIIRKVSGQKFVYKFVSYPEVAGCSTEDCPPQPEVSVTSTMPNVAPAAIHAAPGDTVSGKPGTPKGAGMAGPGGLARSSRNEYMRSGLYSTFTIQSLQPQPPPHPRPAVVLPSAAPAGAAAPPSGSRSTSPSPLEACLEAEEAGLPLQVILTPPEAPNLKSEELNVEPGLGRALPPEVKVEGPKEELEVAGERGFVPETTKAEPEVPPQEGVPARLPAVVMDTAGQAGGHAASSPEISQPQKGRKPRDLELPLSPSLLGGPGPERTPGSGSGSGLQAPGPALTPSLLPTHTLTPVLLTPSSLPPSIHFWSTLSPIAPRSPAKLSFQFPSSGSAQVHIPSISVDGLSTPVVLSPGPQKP

[2] = system: HEK293 (adenovirus transformed kidney fibroblasts), AR-negative; assay: Cell monolayer growth assay (MTT); format: cell-based
Experimental: FIG. 12C is a graph showing the effect of KCI807 on in vitro growth of AR-negative cell line HEK293 cells measured by the MTT assay. All values were plotted relative to the Day zero value.
Cells were trypsinized and 3000-4000 cells/well were seeded in 96-well plates coated with poly-D-lysine. The cells were seeded in phenol red-free medium supplemented with 10% FBS, 100 units/ml penicillin, 100 μg/ml streptomycin, 2 mM L-glutamine mixture and sodium pyruvate (1 mM) for LNCaP cells and phenol red-free medium supplemented with 10% FBS, 100 units/ml penicillin, 100 μg/ml streptomycin and 2 mM L-glutamine mixture for VCaP, 22Rv1, DU145, HeLa, HEK293 and H1650 cells. The cells were grown at 37° C. in 5% CO2. Twenty four hours after seeding in the 96-well plates, the cells were treated with the indicated concentration of KCI807 or DMSO (vehicle). The cells were re-treated on Day 3 by removing half the volume of medium and replacing it with fresh treated medium. Cell viability was determined using the MTT assay from day zero until day five. MTT (10 μL, 5 mg/mL) was added to each well and incubated for 2h at 37° C. The formazan crystal sediments were dissolved in 100 μL of DMSO, and the absorbance at 570 nm was measured using the BioTek Synergy 2 Microplate Reader (BioTek, Winooski, Vt.). The assay was conducted in sextuplicate wells and values were normalized to day zero.

[3] = system: ARE-dependent promoter activation by AR; assay: Counter screening assay: ARE-luciferase reporter in recombinant HeLa cells expressing AR; format: cell-based, human; conditions: testosterone-treated recombinant HeLa cells
Text: FIG. 6B is a schematic diagram of the reporter system for the counter screening assay. Recombinant HeLa cells used in this assay are identical to the primary screening cells except for the absence of Gal4-ELK1 and substitution of the Gal4 elements in the promoter with a canonical ARE. In this case, testosterone causes cytosolic AR to translocate to the nucleus and bind to the ARE in the promoter resulting in activation of the luciferase reporter.
The cells generated for counter screening, are HeLa cells stably transduced with a lentiviral plasmid construct containing a minimal promoter-luciferase reporter and an upstream androgen response element (ARE) sequence. These HeLa cells were also transduced with a lentiviral expression plasmid encoding the full-length AR. These lentiviral constructs were made as follows. Custom synthesized PCR primers were used to amplify and clone the ARE sequence from a pG5luc plasmid construct containing an ARE sequence element into the pGreenFire1 ™-mCMV-EF1-Neo (Plasmid) at SpeI (upstream) and BamHI (downstream) sites. pG5luc Vector is well known and the complete sequence has NCBI accession #AF264724. The ARE containing pG5luc plasmid is described in detail in Patki et al., 2013, J Biol Chem, 288:11047-11065. The lentiviral vector expressing ARE-luciferase reporter was then packaged in lentivirus and parental HeLa cells were infected as described below under the heading “Lentivirus-mediated-Transduction.” After 72h of infection, 400 ug/mL of Geneticin was added to the culture medium to select for the transduced cells. These cells were then infected with the lentivirus containing the full length AR expression plasmid described above. After 72h of infection, 2 ug/mL of Puromycin was added to the culture medium to select for the transduced cells. Clonal cells harboring both the ARE-promoter-luciferase reporter and also stably expressing AR were then isolated using cloning cylinders as described above. The selected clones were further expanded and then tested for luciferase induction by testosterone. The clone that gave the greatest luciferase signal to noise ratio in response to testosterone treatment was then chosen for use in the counter screening assay for high throughput small molecule screening. All of the plasmid constructs generated above were sequenced to verify DNA sequences before, the constructs were used.
For high throughput screening, recombinant primary screening cells were first depleted of hormone by growing them for 24h in medium in which the serum used was heat-inactivated and charcoal-stripped. The cells were then plated in 384-well white flat bottom plates (5,000 cells/well) (Corning Product #3570) using a Multidrop (Thermo Fisher Scientific, Waltham, Mass.). […]

Structure (SMILES)	AR association with chromatin sites at which ELK1 recruits AR [1]	AR recruitment at canonical ARE enhancer sites (KLK3, TMPRSS2) [1]	inhibition of binding of ER to immobilized ELK1 (binding of ER to ELK1)	binding to immobilized ELK1 (ELK1)	growth of HEK293 cells [2]	inhibition of ARE-dependent promoter activation by AR (in words) [3]
O=c1cc(-c2cccc(O)c2)oc2cccc(O)c12 [KCI807, 5,3′-dihydroxyflavone]	prevented association of AR	did not affect AR recruitment	inhibits the binding of ER to ELK1	did not bind	did not appreciably affect the growth	
CNC(=O)c1ccc(N2C(=S)N(c3ccc(C#N)c(C(F)(F)F)c3)C(=O)C2(C)C)cc1F [enzalutamide]						completely suppressed the signal
